{"source": "patent US5216183A", "about": "“Cyclopentanone/cyclopentenone derivative” (Teijin Limited, priority 1988, dated 1993)", "key": {"L1210 cancer cells": {"tested_on": "L1210 cancer cells", "assay": "Evaluation of antitumor activity (L1210 growth, 4 days, trypan blue)", "format": "cell-based", "conditions": "Mus musculus, 96 h, Table 37, L1210, 1×10^5 cells/ml", "procedure": "Cancer cells were grown in an RPMI 1640 culture medium containing 10% of fetal calf serum.\nThe compound to be tested was dissolved in 99.5% ethanol and was added to the medium so that the final concentration of the ethanol was 0.1% or less. As a control, 0.1% ethanol was used. L1210 cancer cells were inoculated at a concentration of 1×10^5 cells/ml in the medium and were grown for 4 days. The number of live cells was determined by trypan blue staining."}, "[1]": {"tested_on": "human osteoblast (SAM-1, 12PDL)", "assay": "Determination (1) of bone formation activity (SAM-1, 25 days)", "format": "cell-based", "conditions": "Table 38; for Ca per DNA: control 0.386 ± 0.245; for ALP per DNA: control 1.148 ± 0.050; for P per DNA: control 1.528 ± 0.316", "procedure": "Human osteoblast (SAM-1, 12PDL) was cultured in α-MEM containing 10% fetal bovine serum, and when a stable growth was attained, a predetermined concentration of the compound was added in the presence of 2 mM α-glycerophosphoric acid salt, followed by treatment for 25 days. The cell layer was washed with Hank's solution and the alkali phosphatase activity then measured by absorption at OD410. Next, calcium and phosphorus were extracted with a 5% perchloric acid solution and quantitated, and DNA was extracted with 5% perchloric acid at 90° C., and the weight thereof quantitated. These evaluations were conducted according to the methods of Koshihara et al (Biochemical and Biophysical Research Communication Vol 145, No. 2, 1987, p. 651)."}, "human osteoblasts": {"tested_on": "human osteoblasts", "conditions": "Koshihara et al., Biochemical Society of Japan (Preprints, 1988, p.767); cited from earlier work"}}}
{"smiles": "C[S+]([O-])C1=CC(O)(CCCCOc2ccccc2)/C(=C/C=C/C(O)CCCO)C1=O", "note": "(stereo not drawn) [drawing 1102, 2-methylsulfinyl-5-[( -- Z)-4,7-dihydroxy-2-heptenylidene]-4-(4-phenoxybutyl)-4-hydroxy-2-cyclopentenone]", "values": [{"measurement": "IC50", "setting": "L1210 cancer cells", "result": 1, "unit": "µg/mL"}]}
{"smiles": "CSC1=CC(=CCCCOc2ccccc2)/C(=C/C=C/C(O)CCCO)C1=O", "note": "(stereo not drawn) [drawing 1103, 2-methylthio-5-[( -- Z)-4,7-dihydroxy-2-eptenylidene]-4-(4-phenoxybutylidene)-2-cyclopentenone]", "values": [{"measurement": "IC50", "setting": "L1210 cancer cells", "result": 3.5, "unit": "µg/mL"}]}
{"smiles": "CSC1=CC(O)(CCCCOc2ccccc2)/C(=C/C=C/C(O)CCCO)C1=O", "note": "(stereo not drawn) [drawing 1105, 2-methylthio-5-[( -- Z)-4,7-dihydroxy-2-heptenylidene]-4-(4-phenoxybutyl)-4-hydroxy-2-cyclopentenone]", "values": [{"measurement": "Ca per DNA", "setting": "[1]; 10^-6 M", "result": 29.410, "unit": "μg/μg DNA"}, {"measurement": "ALP per DNA", "setting": "[1]; 10^-6 M", "result": 1.447, "unit": "OD 410 nm/μg DNA"}, {"measurement": "P per DNA", "setting": "[1]; 10^-6 M", "result": "5.743 ± 0.630", "unit": "μg/μg DNA"}, {"measurement": "Ca per DNA", "setting": "[1]; 10^-7 M", "result": "8.847 ± 1.485", "unit": "μg/μg DNA"}, {"measurement": "ALP per DNA", "setting": "[1]; 10^-7 M", "result": "0.333 ± 0.039", "unit": "OD 410 nm/μg DNA"}, {"measurement": "P per DNA", "setting": "[1]; 10^-7 M", "result": "5.270 ± 0.144", "unit": "μg/μg DNA"}]}
{"smiles": "CCCCC[C@H](O)/C=C/[C@H]1C(=O)C[C@H](O)[C@@H]1C/C=C\\CCCC(=O)O", "note": "[prostaglandin D2]", "values": [{"measurement": "calcification by human osteoblasts", "setting": "human osteoblasts", "result": "accelerated"}]}
